Results taken from patent publication US12180196B2, “Azetidine-substituted pyridine and pyrazine compounds as inhibitors of cannabinoid receptor 2” (HOFFMANN-LA ROCHE INC., priority 2018, dated 2024).

The compounds below were run against human CB2 (Homo sapiens (Human), UniProt P34972) (assay: Radioligand binding assay, human CB2 (CNR2) membranes, [3H]-CP-55,940). Conditions: HEK cell membranes, [3H]-CP-55,940 radioligand.
Experimental: Radioligand Binding Assay
The affinity of the compounds of the invention for cannabinoid CB1 receptors was determined using recommended amounts of membrane preparations (PerkinElmer) of human embryonic kidney (HEK) cells expressing the human CNR1 or CNR2 receptors in conjunction with 1.5 or 2.6 nM [3H]-CP-55,940 (Perkin Elmer) as radioligand, respectively. Binding was performed in binding buffer (50 mM Tris, 5 mM MgCl2, 2.5 mM EDTA, and 0.5% (wt/vol) fatty acid free BSA, pH 7.4 for CB1 receptor and 50 mM Tris, 5 mM MgCl2, 2.5 mM EGTA, and 0.1% (wt/vol) fatty acid free BSA, pH 7.4 for CB2 receptor) in a total volume of 0.2 ml for 1 h at 30° C. shaking. The reaction was terminated by rapid filtration through microfiltration plates coated with 0.5% polyethylenimine (UniFilter GF/B filter plate; Packard). Bound radioactivity was analyzed for Ki using nonlinear regression analysis (Activity Base, ID Business Solution, Limited), with the Kd values for [3H]CP55,940 determined from saturation experiments. The compounds of formula (I) show an excellent affinity for the CB2 receptor.
The compounds according to formula (I) have an activity in the above assay (Ki) between 0.5 nM and 10 μM. Particular compounds of formula (I) have an activity in the above assay (Ki) between 0.5 nM and 3 μM. Other particular compounds of formula (I) have an activity in the above assay (Ki) between 0.5 nM and 100 nM.

Sequence of human CB2 (P34972 whole entry): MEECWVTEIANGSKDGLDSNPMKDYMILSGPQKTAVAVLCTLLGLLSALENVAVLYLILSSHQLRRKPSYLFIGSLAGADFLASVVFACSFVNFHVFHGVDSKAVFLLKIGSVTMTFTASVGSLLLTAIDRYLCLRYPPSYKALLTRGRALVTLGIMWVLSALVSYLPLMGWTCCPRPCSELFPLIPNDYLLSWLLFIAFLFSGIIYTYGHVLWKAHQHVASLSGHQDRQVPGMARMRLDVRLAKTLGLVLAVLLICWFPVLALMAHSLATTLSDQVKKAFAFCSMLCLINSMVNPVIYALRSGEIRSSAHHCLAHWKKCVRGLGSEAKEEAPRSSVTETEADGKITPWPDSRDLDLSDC

SMILES	Ki [nM]
CCOC(=O)C(CC)(CC)NC(=O)c1ccc(N2CC(OCCCF)C2)c(OCC2CC2)n1 [Example 1, Ethyl 2-({6-(cyclopropylmethoxy)-5-[3-(3-fluoropropoxy)azetidin-1-yl]pyridine-2-carbonyl}amino)-2-ethylbutanoate]	19
CCOC(=O)C(CC)(CC)NC(=O)c1ccc(N2CC(OCCF)C2)c(OCC2CC2)n1 [Example 2, Ethyl 2-({6-(cyclopropylmethoxy)-5-[3-(2-fluoroethoxy)azetidin-1-yl]pyridine-2-carbonyl}amino)-2-ethylbutanoate]	5
CCOC(=O)C(CC)(CC)NC(=O)c1ccc(N2CC(F)C2)c(OCC2CC2)n1 [Example 4, Ethyl 2-{[6-(cyclopropylmethoxy)-5-(3-fluoroazetidin-1-yl)pyridine-2-carbonyl]amino}-2-ethylbutanoate]	6
NC(=O)CC1(NC(=O)c2ccc(N3CC(OCCF)C3)c(OCC3CC3)n2)COC1 [Example 5, N-[3-(2-Amino-2-oxoethyl)oxetan-3-yl]-6-(cyclopropylmethoxy)-5-[3-(2-fluoroethoxy)azetidin-1-yl]pyridine-2-carboxamide]	447
